Results: patent US4702864A, “Analogs of platelet activating factor” (E. I. Du Pont de Nemours and Company, priority 1986, dated 1987)
pIC50: −log10 of the molar value.

Assays:
[1] = test system: tetradecanoyl phorbol acetate (TPA)-induced edema in murine ear; test: Topical anti-inflammatory activity, TPA-induced mouse ear edema; format: in vivo, male CF1 mice; settings: in acetone just prior to 1 μg TPA, 4 hours after TPA
Procedure: Topical application of tetradecanoyl phorbol acetate (TPA) to murine skin results in an inflammatory reaction characterized by edema, a dense cellular infiltration 4-6 hours later, and an epidermal hyperplasia 24 hours following application.
To evaluate the antiinflammatory activity of certain compounds within the scope of the present invention, TPA was applied topically to ear epidermal tissue of male CF1 mice 4-6 weeks old. One μg of TPA in acetone was applied topically to one ear, while acetone only was applied to the contralateral ear of each mouse. Test compounds to be evaluated as antiinflammatory agents were applied to both ears in acetone just prior to application of TPA. Four hours after the application of the TPA, the animals were sacrificed, and 6 mm disks of tissue were excised from each treated ear and weighed. The relative amount of edema was then assessed by determining the difference in mass between control and TPA-treated tissue samples.

porcine pancreatic PLA2 = porcine pancreatic PLA2 (Sus scrofa, UniProt P00592); test: Inhibition of porcine pancreatic phospholipase A2 (PLA2); format: biochemical; settings: pH 8.5, 37°, 5 minutes, 14.0 uM substrate; approximation from semilog plot
Procedure: Inhibition of porcine pancreatic PLA2 was measured by a modification of the assay used by Hirata et al., Proc. Natl. Acad. Sci. USA 77:533 (1980). The enzyme-substrate reaction was run in a total volume of 0.1 mL with the enzyme at a final concentration of 19 units/mL (0.025 ug protein/mL) which gave approximately 4000-8000 dpm of activity in a buffer containing 25 mM Tris, 25 mM glycylglycine, 25 mM CaCl2 and 0.75 mM EDTA (tetra sodium salt), pH 8.5. Compounds to be tested as inhibitors were added to an aliquot of enzyme and incubated for 2 minutes, and then the substrate, [arachidonyl-1-^14 C] L-1-palmitoyl-2-arachidonyl phosphatidylcholine was added to provide a final concentration of 14.0 uM (80,000 dpm). The reaction was allowed to proceed for five minutes at 37°, and then halted by freezing the mixture in a dry ice-ethanol slurry. The arachidonic acid product was separated from unreacted substrate using silica gel columns.
All reactions were run in duplicate. Compounds to be tested were dissolved in 0.2M Tris-Cl, pH 8.5 or dissolved in DMSO and then diluted with Tris-Cl buffer (maximum DMSO concentration, 7%). An approximation of IC50 (the concentration of compound which inhibits the phospholipase activity by 50 percent) was determined for each compound from a semilog plot of percent inhibition versus the final inhibitor concentration.

[2] = test system: spontaneous hypertensive rat (SHR); test: Antihypertensive activity in the spontaneous hypertensive rat (SHR), intravenous; format: in vivo; design: key to Blood pressure response: ++: Pronounced decrease in blood pressure (>50 mm Hg); +: Moderate decrease in blood pressure (35-50 mm Hg); ±: Threshold decrease in blood pressure (25-35 mm Hg); NE: No effect observed; settings: for Blood pressure response: SHR
Procedure: In this procedure, anesthetized rats were dosed intravenously with graded dose levels the test compound on a cumulative dose schedule. The test compound was administered in an aqueous 0.25% methylcellulose vehicle at a volume to body weight ratio of 1 mL/kg. Arterial blood pressure was continuously recorded directly through an arterial cannula and a polygraph. That dose of compound producing a reduction in mean blood pressure of 30 mm Hg, or ED30, was then determined. In this manner, an ED30 of 2.00 mg/kg was determined for compound 13BII.
The antihypertensive activity of other compounds within the scope of the present invention was determined by methods substantially similar to those reported in Example 2, above, except that intravenous dosage levels of 2 and 12 mg/kg were employed. The designation "prolonged" indicates a hypotensive response lasting from 15-30 minutes. The following designations are employed to indicate the magnitude of hypotensive response: […]

Chain of porcine pancreatic PLA2 (P00592 23-146): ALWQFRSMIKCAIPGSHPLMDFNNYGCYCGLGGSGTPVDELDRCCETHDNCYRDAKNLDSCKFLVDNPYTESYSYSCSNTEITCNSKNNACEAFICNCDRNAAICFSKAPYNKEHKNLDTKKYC

| SMILES | Ear Volume Reduction (%) [1] [%] | pIC50 (porcine pancreatic PLA2) | Blood pressure response ([2]; 2 mg/kg) | Blood pressure response ([2]; 12 mg/kg) | ED (30 mm Hg) ([2]; Rattus norvegicus, anesthetized SHR, cumulative dose schedule, aqueous 0.25% methylcellulose, read-out: ED30 (dose of compound producing a reduction in mean blood pressure of 30 mm Hg)) [mg/kg] |
| --- | --- | --- | --- | --- | --- |
| CCCCCCCCCCCCCCCCCCSCC(COP(=O)([O-])OCC[N+](C)(C)C)NC(C)=O (stereo not shown) [Compound 10B, 3-Octadecylthio-2-acetamidophosphatidylcholine] | 10 | 6.28 | ++ (Pronounced decrease in blood pressure (>50 mm Hg)) |  |  |
| CCCCCCCCCCCCCCCCSCC(COP(=O)([O-])OCC[N+](C)(C)C)NC(C)=O (stereo not shown) [Compound 10C] |  | 5.96 |  |  |  |
| CCCCCCCCSCC(COP(=O)([O-])OCC[N+](C)(C)C)NC(C)=O (stereo not shown) [Compound 10D] |  | 5.05 | NE | ++ (Pronounced decrease in blood pressure (>50 mm Hg)) |  |
| CCCCCCSCC(COP(=O)([O-])OCC[N+](C)(C)C)NC(C)=O (stereo not shown) [Compound 10E] |  | 4.01 |  |  |  |
| CCCCCCCCCCCCCCCCCCSCC(COP(=O)([O-])OCC[N+](C)(C)C)NC(=O)OC (stereo not shown) [Compound 13BII, 3-octadecylthio-2-carbomethoxyamidophosphatidylcholine] |  | 4.72 | ± (Threshold decrease in blood pressure (25-35 mm Hg)) | ++ (Pronounced decrease in blood pressure (>50 mm Hg)) | 2 |
| CCCCCCCCCCCCCCCCCCSCC(COP(=O)([O-])OCC[N+](C)(C)C)NC(=O)CCCCCCCCCCCCCCCCC (stereo not shown) [Compound 13BI] |  | 6.26 |  |  |  |
| CCCCCCCCCCCCCCCCSCC(COP(=O)([O-])OCC[N+](C)(C)C)NC(=O)OC (stereo not shown) [Compound 13CII] |  | 4.74 | ++ (Pronounced decrease in blood pressure (>50 mm Hg)) |  |  |
| CCCCCCCCCCCCCCCCSCC(COP(=O)([O-])OCC[N+](C)(C)C)NC(=O)c1ccccc1 (stereo not shown) [Compound 13CIV] | 57 | 5.85 | NE | ± (Threshold decrease in blood pressure (25-35 mm Hg)) |  |
